Experimental data as given in patent US20130053320A1, “TREATMENT OF ANEMIA BY ADNP AND ADNF POLYPEPTIDES” (Ramot at Tel-Aviv University, Ltd., priority 2010, published 2013).

Experiments:
MEL cells [1] = experiment: MEL cell erythroid differentiation, marker mRNA by Real-Time PCR; type: cell-based, mouse
Protocol: MEL cells were a gift from Prof. N. Shaklai (Tel Aviv University, Israel). Cells were cultured at 37° C. in 5% CO2 incubator in RPMI-1640 medium supplemented with 10% fetal calf serum, 2 mM L-glutamine, 100 U/ml penicillin, 0.1 mg/ml streptomycin and 12.5 U/ml nystatin (Biological Industries, Beit Haemek, Israel). To induce erythroid differentiation, 2% DMSO (v/v, Sigma, St. Louis, Mo., USA) was added for 4 days.
2 ADNP shRNA clones (sh68 and sh71, Sigma) were used for mouse ADNP (NM_009628) silencing in MEL cells, as before (Mandel et al., 2008, J Mol Neurosci 35, 127-141). […] For mouse ADNP2 (NM_175028) silencing, a mixture of 2 stealth small interfering RNA (siRNA) duplexes (Invitrogen, Carlsbad, Calif., USA) was used.
Transfections were performed using Lipofectamine-2000 (Invitrogen). 6 hours after transfection, 2% DMSO was added to the cells for 4 days in order to induce erythroid differentiation. On the 4th day, cells were harvested, RNA was extracted and expression levels of ADNP, ADNP2, band3, β-globin, Brg1 and c-kit were evaluated.
Total RNA from MEL cells was extracted by the RNeasy Plus Mini Kit (Qiagen, Hilden, Germany). RNA integrity was determined by fractionation on 1% agarose gel and staining with ethidium bromide. RNA quantity (OD260) was determined by NanoDrop spectrophotometer (NanoDrop Technologies, Wilmington, Del., USA).
Samples with the same amount of total RNA were used to synthesize single-strand cDNA employing the Applied Biosystems High Capacity cDNA Reverse Transcription Kit (Applied Biosystems, Foster City, Calif., USA) and random hexamers primers as before (Dresner et al., 2010, supra). Primer pairs (see Table 1) were designed using the primer 3 web interface (website: frodo.wi.mit.edu/primer3/) and synthesized by Sigma-Genosys (The Woodlands, Tex., USA). To avoid amplification of contaminating genomic DNA, primers were designed to exon-exon junction. […]

MEL cells [2] = experiment: Growth of MEL cells during differentiation (viable cell counts); type: cell-based, mouse; conditions: 2% DMSO vs ND cells
Protocol: FIG. 4: ADNP and ADNP2 are required for mouse erythroid differentiation. (A-C) MEL cells were differentiated with 2% DMSO for 4 days and compared to non-differentiated (ND) cells incubated for the same time period. Results are means±S.E.M analyzed by student's t-test (*p<0.05, **p<0.01, ***p<0.001). (A) The picture depicts the red pellet (Hb) of differentiated (D) cells compared to the white pellet of ND cells. (B) mRNA expression levels of β-globin, band3 and c-kit in D versus ND MEL cells. 4 experiments were performed, each in duplicates. Data is presented in logarithmic scale as fold change from the expression level in the ND state. (C) Growth curves of D and ND MEL cells. Results are % of the number of cells at plating (100%). […] Real-Time PCR analysis determined ADNP, ADNP2, β-globin, band3 and c-kit expression levels. […] Results, means±S.E.M were analyzed using student's t-test (*p<0.05, **p<0.01, ***p<0.001, relative to control cells, transfected with non-specific shRNA/siRNA sequences). (F+G) MEL cells were transfected with ADNP/ADNP2 shRNA/siRNA respectively, and viable cells were counted every 24 hrs during 4 days differentiation process with 2% DMSO. […] Results are presented as % from the number of cells at plating (100%), and analyzed using student's t-test (**p<0.01, relative to number of control cells, transfected with non-specific siRNA or shRNA sequences). […]

zebrafish embryos [3] = experiment: Morpholino knockdown in zebrafish embryos, observation of blood and morphology; type: in vivo; conditions: for cardiac edema / smaller head and eyes: MO-injected embryos; for morphology and development: MO-injected embryos vs control; for smaller head and eyes: FIG. 2C; for blood colour: at 72 hpf, vs red blood of control embryos; for blood cells in circulation: starting from 28 hpf, vs control-MO injected embryos
Protocol: (§1) Gene knockdown experiments were performed using morpholino-modified antisense oligonucleotides (MO's, Gene Tools, Philomath, Oreg., USA). MO's were injected into wild type embryos, immediately after fertilization (2 nl, 1-2 mM). This was followed by a daily monitoring of the embryos for 10 days. MO's sequences were chosen through the Gene Tools oligonucleotide design service. A splicing MO, directed to intron3-exon4 boundary, was designed to block adnp1a (adnp1a-MO, 5′-[…]-3′). The efficiency of the adnp1a splicing MO was evaluated by RT-PCR. Translation MO's were designed to block adnp1b, adnp2a and adnp2b (adnp1 b-MO, 5′-[…]-3′; adnp2a-MO: 5′-[…]-3′; adnp2b-MO: 5′-[…]-3′). BLAST analysis was performed to verify that the MO's were not predicted to bind gene sequences other than their targets, and that their target sequence was not conserved among the other zebrafish adnp1 and adnp2 genes. Gene-Tools standard control-MO, which has not been reported to have other targets or generate any phenotypes, was used as a negative control (5-[…]-3′). Injections were repeated in at least 4 independent experiments for each MO.
For adnp2a-MO injected embryos, blood circulation was evaluated at 48 hpf. For the 3 other MO's, circulation was examined at 72 hpf when red blood is easily seen. Based on observation, embryos were divided to have normal blood cells, no blood cells or hypochromic and/or fewer blood cells.

zebrafish embryos [4] = experiment: O-dianisidine staining of Hb in whole MO-injected embryos; type: in vivo; conditions: for Hemoglobin (Hb) staining, Hb content: 48 hpf and 72 hpf; for O-dianisidine staining: 48 hpf, vs control embryos (legend FIG. 2F)
Protocol: as §1
Hb activity was detected in whole embryos by performing o-dianisidine staining as described (Iuchi and Yamamoto, 1983, J Exp Zool 226, 409-417).

zebrafish embryos [5] = experiment: Whole-mount in situ hybridization (WMISH) of hematopoietic markers in MO-injected embryos; type: in vivo
Protocol: as §1
Transcripts of sci (NM_213237), lmo2 (NM_131111), gata1 (NM_131234), band3 (NM_198338), embryonic α-globin 1 (NM_182940), lys-C(NM_139180), l-plastin (NM_131320), ikaros (NM_130986), c-myb (NM_131266), irx7 (NM_131881), flk1 (NM_131472), cmlc2 (NM_131329), adnp1a (NM_001080015), adnp1b (XM—002666474), adnp2a (NM_001098265) and adnp2b (NM_001080013) were detected by WMISH using digoxygenin (DIG) labeled antisense RNA probes at a concentration of 1 ng/μl. Transcription of RNA probes was performed from pGEM-T Easy plasmids linearized before the coding sequence, using SP6 or T7 RNA polymerases (DIG RNA labeling kit, Roche Applied Science, Penzberg, Germany). Embryos at different developmental stages were fixed overnight in 4% paraformaldehyde and stored in 100% methanol. WMISH was performed as describe (Ziv et al., 2005, supra). Fixed embryos were then placed in 70% glycerol for observation and photography using a dissecting stereoscope (SZX12, Olympus) equipped with digital camera (DP70, Olympus). In each experiment, embryos hybridized with the same probe were stained under the same conditions and for the same time period using identical microscopic and camera settings.

[6] = 2% DMSO for 4 days vs non-differentiated cells

Row | Compound | cardiac edema (zebrafish embryos [3]) | morphology and development (zebrafish embryos [3]) | smaller head and eyes (zebrafish embryos [3]) | blood colour (zebrafish embryos [3]) | blood cells in circulation (zebrafish embryos [3]) | Hemoglobin (Hb) staining, Hb content (zebrafish embryos [4]) | O-dianisidine staining (zebrafish embryos [4]) | other results
1 | C[S+](C)[O-] [DMSO] |  |  |  |  |  |  |  | c-kit expression lower (MEL cells [1]; 2% DMSO for 4 days vs ND cells): 200 times; increase of band3 mRNA expression (MEL cells [1]; [6]): 10000 fold; increase of β-globin mRNA expression (MEL cells [1]; [6]): 1000 fold; growth rate of differentiating cells (MEL cells [2]): significant reduction
2 | adnp1a-MO: splicing morpholino antisense oligonucleotide to intron3-exon4 boundary of zebrafish adnp1a, 5′-TAGTCCTGCAACATTTGAGAAACCA-3′ (all phosphorodiamidate morpholino (PMO)) | visible in some embryos | developmental delay, distorted tail morphology | 73 % of embryos | hypochromic | fewer blood cells in circulation | significant reduction in Hb content | Reduced staining | 
3 | adnp2b-MO: translation-blocking morpholino to zebrafish adnp2b, 5′-ACCTTTTACTGGAAACTGGTACATG-3′ (all phosphorodiamidate morpholino (PMO)) |  | no developmental delay or major morphological changes |  |  |  |  | Reduced staining | morphology (zebrafish embryos [3]; injection of higher doses of MO): distorted morphology
4 | adnp2a-MO: translation-blocking morpholino to zebrafish adnp2a, 5′-CACTGGAATCTGATACATTTTGCTC-3′ (all phosphorodiamidate morpholino (PMO)) | noticeable cardiac edema | no effect on the overall morphology |  |  |  | totally negative | No staining is visible | blood cells visible (zebrafish embryos [3]; between 33-48 hpf): no blood cells were evident; ectopic expression of band3 along the tail and yolk sinus (zebrafish embryos [5]; 4 dpf): 100 % of embryos; ectopic expression of gata1 along the tail and yolk sinus (zebrafish embryos [5]; 4 dpf): 86 % of embryos; gata1 expression normal in the ICM (zebrafish embryos [5]; 17-19 hpf): 100 % of embryos; lmo2 expression intact in the ICM (zebrafish embryos [5]; 17-19 hpf): 100 % of embryos; scl expression intact in the ICM (zebrafish embryos [5]; 17-19 hpf): 100 % of embryos; band3 expression almost absent (zebrafish embryos [5]; 28 hpf): 83 % of embryos; embryonic α-globin 1 expression significantly reduced (zebrafish embryos [5]; 28 hpf): 96 % of embryos; gata1 expression dramatically reduced (zebrafish embryos [5]; 28 hpf): 90 % of embryos; l-plastin expression intact (zebrafish embryos [5]; 28 hpf): 100 % of embryos; lys-C expression intact (zebrafish embryos [5]; 28 hpf): 100 % of embryos; band3 expression almost absent (zebrafish embryos [5]; 48 hpf): 97 % of embryos
5 | adnp1b-MO: translation-blocking morpholino to zebrafish adnp1b, 5′-TTGTTCACTGGGAGTTGAAACATTC-3′ (all phosphorodiamidate morpholino (PMO)) | visible in some embryos | developmental delay, distorted tail morphology | 92 % of embryos | hypochromic | fewer blood cells in circulation | significant reduction in Hb content | Reduced staining | 
